This note sets out measurements from ChEMBL document CHEMBL5465560, “Selectivity Literature for EUbOPEN Chemogenomic Library” (2024).

Test [1] has as its target Dual specificity mitogen-activated protein kinase kinase 1 (Homo sapiens, UniProt Q02750). The test is described as follows: Selectivity interaction (Upstate Kinase Profiler service (Millipore)) EUB0000056c MAP2K1. The note with it: at 1 µM.
Test [2] deals with RAC-alpha serine/threonine-protein kinase (Homo sapiens, UniProt P31749). The experiment in a line: Selectivity interaction (ProQinase) EUB0000171b AKT1.
Chain of RAC-alpha serine/threonine-protein kinase (P31749 whole entry): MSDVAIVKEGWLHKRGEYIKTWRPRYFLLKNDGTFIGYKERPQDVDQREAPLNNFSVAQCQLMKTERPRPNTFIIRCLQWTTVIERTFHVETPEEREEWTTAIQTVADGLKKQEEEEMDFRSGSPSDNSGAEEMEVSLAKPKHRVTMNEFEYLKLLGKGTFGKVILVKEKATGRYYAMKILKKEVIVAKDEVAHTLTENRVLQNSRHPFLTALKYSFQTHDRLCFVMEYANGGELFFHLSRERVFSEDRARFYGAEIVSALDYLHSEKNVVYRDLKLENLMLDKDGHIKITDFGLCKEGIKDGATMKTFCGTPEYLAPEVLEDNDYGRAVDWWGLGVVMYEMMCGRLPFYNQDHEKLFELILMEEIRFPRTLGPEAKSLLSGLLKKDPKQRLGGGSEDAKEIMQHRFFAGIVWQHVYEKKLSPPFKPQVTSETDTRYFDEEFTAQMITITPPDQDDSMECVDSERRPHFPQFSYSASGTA
The target in test [3] is Mitogen-activated protein kinase kinase kinase kinase 4 (Homo sapiens, UniProt O95819). The settings on record: at 10 µM.
The target of test [4] is T1, Non-receptor tyrosine-protein kinase TNK1 (Homo sapiens) (UniProt Q13470).
T1 sequence (whole entry): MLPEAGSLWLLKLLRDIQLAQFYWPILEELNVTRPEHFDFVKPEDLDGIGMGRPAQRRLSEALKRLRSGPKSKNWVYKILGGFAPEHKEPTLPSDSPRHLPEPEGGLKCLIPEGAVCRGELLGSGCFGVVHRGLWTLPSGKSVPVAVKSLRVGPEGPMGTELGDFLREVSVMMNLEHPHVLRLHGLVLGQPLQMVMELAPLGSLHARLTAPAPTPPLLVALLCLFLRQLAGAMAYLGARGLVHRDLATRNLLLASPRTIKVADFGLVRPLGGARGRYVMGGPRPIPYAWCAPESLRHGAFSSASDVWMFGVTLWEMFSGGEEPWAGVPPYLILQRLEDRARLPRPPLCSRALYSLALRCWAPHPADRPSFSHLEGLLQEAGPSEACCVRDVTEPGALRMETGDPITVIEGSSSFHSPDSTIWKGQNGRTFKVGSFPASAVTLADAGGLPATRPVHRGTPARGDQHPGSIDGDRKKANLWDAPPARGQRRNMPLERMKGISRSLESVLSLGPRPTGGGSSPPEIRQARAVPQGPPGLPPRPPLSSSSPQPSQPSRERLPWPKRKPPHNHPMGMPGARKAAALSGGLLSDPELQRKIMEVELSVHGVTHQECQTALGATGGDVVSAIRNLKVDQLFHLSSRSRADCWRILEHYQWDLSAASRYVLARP
The note with it: at 10 µM.

Test [5] has as its target Macrophage colony-stimulating factor 1 receptor (Homo sapiens) (UniProt P07333). The experiment in a line: Selectivity interaction (KinomeScan (DiscoverX)) EUB0001079a CSF1R. The note with it: at 1 µM.
Test [6] concerns the target Casein kinase I isoform alpha (Homo sapiens, UniProt P48729). The experiment in a line: Selectivity interaction (KinomeScan (DiscoverX)) EUB0000655a CSNK1A1. The settings on record: at 10 µM.
Test [7] deals with Serine/threonine-protein kinase N1 (Homo sapiens, UniProt Q16512). The test is described as follows: Selectivity interaction (KinomeScan (DiscoverX)) EUB0000655a PKN1. The note with it: at 10 µM.
Chain of Serine/threonine-protein kinase N1 (Q16512 2-942 limits assumed): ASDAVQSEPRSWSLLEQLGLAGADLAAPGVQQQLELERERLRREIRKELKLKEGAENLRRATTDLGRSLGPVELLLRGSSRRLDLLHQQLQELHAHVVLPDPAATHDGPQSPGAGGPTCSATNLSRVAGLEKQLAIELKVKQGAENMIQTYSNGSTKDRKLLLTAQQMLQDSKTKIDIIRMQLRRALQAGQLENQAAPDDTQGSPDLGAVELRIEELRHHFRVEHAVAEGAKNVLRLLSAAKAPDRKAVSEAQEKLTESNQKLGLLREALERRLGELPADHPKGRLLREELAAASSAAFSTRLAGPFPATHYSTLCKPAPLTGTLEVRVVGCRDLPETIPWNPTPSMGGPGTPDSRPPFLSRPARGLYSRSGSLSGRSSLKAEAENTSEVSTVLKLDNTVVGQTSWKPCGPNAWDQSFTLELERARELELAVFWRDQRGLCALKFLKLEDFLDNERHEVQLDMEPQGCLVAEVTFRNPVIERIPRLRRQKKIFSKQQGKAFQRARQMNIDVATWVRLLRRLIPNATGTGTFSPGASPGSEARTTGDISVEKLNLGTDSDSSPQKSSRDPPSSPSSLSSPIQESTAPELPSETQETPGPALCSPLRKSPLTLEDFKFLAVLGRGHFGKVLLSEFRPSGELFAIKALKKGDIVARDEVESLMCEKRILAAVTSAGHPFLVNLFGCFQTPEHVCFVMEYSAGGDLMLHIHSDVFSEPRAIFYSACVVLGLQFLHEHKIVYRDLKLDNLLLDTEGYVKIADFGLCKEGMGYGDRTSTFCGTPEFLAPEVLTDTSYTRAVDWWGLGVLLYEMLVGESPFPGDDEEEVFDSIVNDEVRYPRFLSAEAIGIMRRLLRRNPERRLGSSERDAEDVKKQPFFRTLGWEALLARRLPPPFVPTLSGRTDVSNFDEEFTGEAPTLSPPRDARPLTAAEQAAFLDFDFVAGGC
The target of test [8] is ATPase family AAA domain-containing protein 2B (Homo sapiens) (UniProt Q9ULI0). The test is described as follows: Selectivity interaction (Bromodomain panel (DSF asssay)) EUB0000270b ATAD2B.
In test [9] the target is Cyclin-dependent kinase 9 (Homo sapiens, UniProt P50750). The test is described as follows: Selectivity interaction (KinomeScan (DiscoverX)) EUB0000045b CDK9.
Chain of Cyclin-dependent kinase 9 (P50750 whole entry): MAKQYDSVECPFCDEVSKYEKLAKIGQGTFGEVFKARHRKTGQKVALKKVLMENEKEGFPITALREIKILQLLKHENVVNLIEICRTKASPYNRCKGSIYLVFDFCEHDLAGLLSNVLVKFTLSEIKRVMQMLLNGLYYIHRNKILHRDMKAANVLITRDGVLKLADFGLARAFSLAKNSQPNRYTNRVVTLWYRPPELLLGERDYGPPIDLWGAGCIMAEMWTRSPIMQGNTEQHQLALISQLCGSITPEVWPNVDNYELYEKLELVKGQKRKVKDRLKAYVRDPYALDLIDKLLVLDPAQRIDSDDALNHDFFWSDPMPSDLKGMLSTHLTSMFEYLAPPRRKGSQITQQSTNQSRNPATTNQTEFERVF
For test [10], the target named is Dual specificity mitogen-activated protein kinase kinase 2 (Homo sapiens) (UniProt P36507). The experiment in a line: Selectivity interaction (KinomeScan (DiscoverX)) EUB0000666a MAP2K2. The settings on record: at 10 µM.
Chain of Dual specificity mitogen-activated protein kinase kinase 2 (Homo sapiens) (P36507 whole entry): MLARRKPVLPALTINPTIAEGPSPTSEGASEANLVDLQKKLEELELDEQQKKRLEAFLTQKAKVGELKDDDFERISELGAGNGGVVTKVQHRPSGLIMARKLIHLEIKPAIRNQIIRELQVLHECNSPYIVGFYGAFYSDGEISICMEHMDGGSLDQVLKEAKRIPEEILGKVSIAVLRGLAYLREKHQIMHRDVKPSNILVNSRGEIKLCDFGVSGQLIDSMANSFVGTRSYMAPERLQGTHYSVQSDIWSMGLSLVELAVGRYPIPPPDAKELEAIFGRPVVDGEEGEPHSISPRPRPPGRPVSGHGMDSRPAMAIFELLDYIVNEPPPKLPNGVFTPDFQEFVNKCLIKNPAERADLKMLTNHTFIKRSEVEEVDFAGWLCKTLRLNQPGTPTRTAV
Test [11] deals with STE20-like serine/threonine-protein kinase (Homo sapiens, UniProt Q9H2G2). The test is described as follows: Selectivity interaction (ActivX KiNativ screen (kinase selectivity in THP-1 cell lysates)) EUB0000639a SLK. It counts as subcellular. The settings on record: lysate, at 0.04 µM.
Chain of STE20-like serine/threonine-protein kinase (Q9H2G2 whole entry, looked up): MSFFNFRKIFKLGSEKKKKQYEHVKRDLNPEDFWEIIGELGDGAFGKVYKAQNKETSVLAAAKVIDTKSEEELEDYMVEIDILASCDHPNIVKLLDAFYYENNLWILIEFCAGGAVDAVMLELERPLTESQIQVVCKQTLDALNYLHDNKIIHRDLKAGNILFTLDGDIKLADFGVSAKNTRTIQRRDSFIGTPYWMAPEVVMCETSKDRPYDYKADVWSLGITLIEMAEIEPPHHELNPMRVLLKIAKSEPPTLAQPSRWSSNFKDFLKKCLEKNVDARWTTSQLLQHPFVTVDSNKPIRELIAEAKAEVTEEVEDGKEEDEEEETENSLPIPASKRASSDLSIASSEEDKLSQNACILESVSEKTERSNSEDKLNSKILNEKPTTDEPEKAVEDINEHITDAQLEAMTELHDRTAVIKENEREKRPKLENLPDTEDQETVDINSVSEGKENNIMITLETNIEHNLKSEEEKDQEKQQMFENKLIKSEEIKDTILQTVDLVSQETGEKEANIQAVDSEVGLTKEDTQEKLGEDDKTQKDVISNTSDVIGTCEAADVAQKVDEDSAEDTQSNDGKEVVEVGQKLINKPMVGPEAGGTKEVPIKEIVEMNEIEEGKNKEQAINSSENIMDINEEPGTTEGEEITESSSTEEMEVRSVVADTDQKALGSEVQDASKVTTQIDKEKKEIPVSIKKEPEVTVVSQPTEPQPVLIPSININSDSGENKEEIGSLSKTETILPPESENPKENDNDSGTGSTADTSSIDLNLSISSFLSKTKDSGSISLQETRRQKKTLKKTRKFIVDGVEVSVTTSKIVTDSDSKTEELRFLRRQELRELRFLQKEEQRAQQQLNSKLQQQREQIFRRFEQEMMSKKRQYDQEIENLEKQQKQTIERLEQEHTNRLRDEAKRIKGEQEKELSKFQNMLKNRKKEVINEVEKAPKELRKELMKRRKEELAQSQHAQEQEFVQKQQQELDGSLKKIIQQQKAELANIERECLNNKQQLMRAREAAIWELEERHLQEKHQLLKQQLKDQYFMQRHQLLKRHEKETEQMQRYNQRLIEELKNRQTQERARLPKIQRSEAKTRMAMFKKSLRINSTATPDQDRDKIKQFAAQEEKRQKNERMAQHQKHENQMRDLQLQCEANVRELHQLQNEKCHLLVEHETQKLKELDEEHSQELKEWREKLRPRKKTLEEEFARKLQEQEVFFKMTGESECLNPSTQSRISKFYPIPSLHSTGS
Test [12] deals with T2, Dual specificity protein kinase TTK (Homo sapiens) (UniProt P33981).
T2 sequence (whole entry): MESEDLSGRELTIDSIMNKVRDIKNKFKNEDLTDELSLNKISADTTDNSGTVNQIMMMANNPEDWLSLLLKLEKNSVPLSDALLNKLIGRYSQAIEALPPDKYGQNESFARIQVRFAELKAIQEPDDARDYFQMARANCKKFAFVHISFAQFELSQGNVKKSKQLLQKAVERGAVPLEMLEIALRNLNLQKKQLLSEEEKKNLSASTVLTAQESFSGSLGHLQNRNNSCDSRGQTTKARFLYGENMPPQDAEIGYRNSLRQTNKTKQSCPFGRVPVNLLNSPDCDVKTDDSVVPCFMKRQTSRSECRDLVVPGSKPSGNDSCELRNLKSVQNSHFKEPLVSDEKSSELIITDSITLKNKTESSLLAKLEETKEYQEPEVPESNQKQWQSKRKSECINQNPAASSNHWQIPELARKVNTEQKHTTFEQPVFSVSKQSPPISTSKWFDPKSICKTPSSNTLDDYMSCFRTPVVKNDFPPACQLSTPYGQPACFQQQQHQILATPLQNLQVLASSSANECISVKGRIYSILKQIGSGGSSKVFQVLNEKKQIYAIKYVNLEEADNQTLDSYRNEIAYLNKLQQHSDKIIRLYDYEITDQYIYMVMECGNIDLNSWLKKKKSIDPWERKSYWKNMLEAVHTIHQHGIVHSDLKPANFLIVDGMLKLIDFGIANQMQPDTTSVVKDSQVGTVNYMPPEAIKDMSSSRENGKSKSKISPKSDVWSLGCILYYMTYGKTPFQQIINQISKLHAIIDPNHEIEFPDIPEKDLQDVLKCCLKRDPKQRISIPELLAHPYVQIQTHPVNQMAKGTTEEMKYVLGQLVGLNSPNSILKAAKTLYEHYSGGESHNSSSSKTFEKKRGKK
The test is described as follows: Selectivity interaction (Kinase panel (Invitrogen)) EUB0000639a TTK. The note with it: at 200 nM.

Test [13] concerns the target Tyrosine-protein kinase receptor UFO (Homo sapiens) (UniProt P30530). The test is described as follows: Selectivity interaction (KinomeScan (DiscoverX)) EUB0000229b AXL. The note with it: at 10 µM.
For test [14], the target named is Serine/threonine-protein kinase pim-3 (Homo sapiens) (UniProt Q86V86). The test is described as follows: Selectivity interaction (Kinase panel (DSF assay)) EUB0001559a PIM3. (In DSF a fluorescence change marks the thermal transition of the protein.)
In test [15] the target is T3, Testis-specific serine/threonine-protein kinase 1 (Homo sapiens) (UniProt Q9BXA7).
T3 sequence (whole entry): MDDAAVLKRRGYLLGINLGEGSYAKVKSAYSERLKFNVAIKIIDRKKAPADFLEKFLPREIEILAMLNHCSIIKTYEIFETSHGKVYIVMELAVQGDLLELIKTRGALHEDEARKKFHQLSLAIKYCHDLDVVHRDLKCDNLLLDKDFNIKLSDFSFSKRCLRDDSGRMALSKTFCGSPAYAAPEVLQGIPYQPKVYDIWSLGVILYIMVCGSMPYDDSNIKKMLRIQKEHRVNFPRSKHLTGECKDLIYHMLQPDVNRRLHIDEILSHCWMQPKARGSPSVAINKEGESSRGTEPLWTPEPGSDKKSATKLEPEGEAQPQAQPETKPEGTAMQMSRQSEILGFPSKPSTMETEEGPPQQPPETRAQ
The note with it: at 10 µM.

The target of test [16] is AP2-associated protein kinase 1 (Homo sapiens, UniProt Q2M2I8). The test is described as follows: Selectivity interaction (KinomeScan (DiscoverX)) EUB0000618a AAK1. The note with it: at 10 µM.

Chain of Casein kinase I isoform alpha (P48729 2-337 limits assumed): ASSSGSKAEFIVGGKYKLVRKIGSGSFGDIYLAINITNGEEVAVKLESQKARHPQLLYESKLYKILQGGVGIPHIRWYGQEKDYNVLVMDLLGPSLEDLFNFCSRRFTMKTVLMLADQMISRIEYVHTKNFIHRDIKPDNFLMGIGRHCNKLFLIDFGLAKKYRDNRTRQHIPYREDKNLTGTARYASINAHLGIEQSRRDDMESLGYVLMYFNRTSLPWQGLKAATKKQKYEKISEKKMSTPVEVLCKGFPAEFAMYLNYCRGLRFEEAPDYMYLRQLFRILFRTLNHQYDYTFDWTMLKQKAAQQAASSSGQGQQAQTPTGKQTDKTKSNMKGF
Chain of Dual specificity mitogen-activated protein kinase kinase 1 (Q02750 whole entry): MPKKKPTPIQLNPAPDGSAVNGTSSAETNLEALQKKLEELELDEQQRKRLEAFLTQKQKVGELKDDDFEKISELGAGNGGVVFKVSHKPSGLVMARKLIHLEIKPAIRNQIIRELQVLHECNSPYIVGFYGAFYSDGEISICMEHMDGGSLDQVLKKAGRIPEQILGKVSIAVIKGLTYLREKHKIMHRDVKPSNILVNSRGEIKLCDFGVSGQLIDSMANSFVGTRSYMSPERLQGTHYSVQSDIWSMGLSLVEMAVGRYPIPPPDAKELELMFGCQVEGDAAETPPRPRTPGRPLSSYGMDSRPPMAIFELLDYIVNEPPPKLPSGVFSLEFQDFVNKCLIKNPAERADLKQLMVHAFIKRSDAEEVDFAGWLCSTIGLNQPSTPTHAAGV

In the case of `Cc1ccc(-c2ccc3c(ccc4sc5c(c43)NC[C@@H](C)NC5=O)n2)cn1`, the % of inhibition in test [1] is -8%.
As to `C=CC(=O)Nc1cccc(C(=O)Nc2ccc(Nc3cc(-c4[nH]c(SC)nc4C)ccn3)cc2)c1`, the values for the % of control in test [2] (at 1 µM) and in test [2] (at 5 µM) were 84% and 69%, respectively.
Turning to `CCN(CC)CCCCNc1ncc2cc(-c3cc(OC)cc(OC)c3)c(NC(=O)NC(C)(C)C)nc2n1`, the % of control in test [3] and in test [4] was 100% each time.
Turning to `Nc1cnc(N2CCc3cc(S(=O)(=O)Nc4c(F)cc(Cl)cc4F)cc(N4CCCC4=O)c32)nc1` [TP-020n], the % of control in test [5] is 100%.
Turning to `CN(C)CCOc1ccc(-c2nc(-c3ccncc3)c(-c3ccc4c(c3)CC/C4=N\O)[nH]2)cc1`, the % of control is 38% in test [6] and 92% in test [7].
For `Cc1cc(CN)cc(C)c1-c1ncn(C)c1-c1cncn1C`, the dTM in test [8] is -1.47 K.
Consider `C=CC(=O)Nc1cc(-n2c(=O)ccc3cnc4ccc(-c5ccc(NS(C)(=O)=O)cc5)cc4c32)ccc1C`, for which the figures for the % of control in test [9] (at 1 µM) and in test [9] (at 10 µM) were 100% and 95%, respectively.
With `O=C(NOC[C@H](O)CO)c1ccc(F)c(F)c1Nc1ccc(I)cc1F`, the % of control in test [10] came to 0.2%.
With `CC[C@@H]1[C@H](F)C(=O)N[C@@H]1COc1nccc2cc(C(N)=O)c(OC)cc12` [ZIMLOVISERTIB], the values for the % of inhibition in test [11] and in test [12] were -0.4% and 8.59%, respectively.
In the case of `COc1cc(N(C)c2ccnc3ccc(C(F)(F)F)cc23)cc(OC)c1OC`, the % binding in [13] was determined as 86%.
Molecule `CN(C(=O)c1cnn2cccnc12)c1cc2c(cc1N1CCOCC1)C(=O)N(C[C@@H](F)C(C)(C)O)C2` yielded a dTM in test [14] of -0.4 K.
The molecule `COCC(=O)NC/C=C/c1ccc2ncnc(Nc3ccc(Oc4ccc(C)nc4)c(C)c3)c2c1` [CP-724714] displayed a % of control in test [15] of 100%.
For the molecule `O[C@H]1CC[C@H](Nc2ncc3nc(Nc4c(F)cc(F)cc4F)n([C@H]4CCOC4)c3n2)CC1`, in test [16], the % of control worked out at 100%.
